Measured values taken from PMC8327158, “PEGylated AdipoRon derivatives improve glucose and lipid metabolism under insulinopenic and high-fat diet conditions” (Journal of Lipid Research, 2021).
In brackets after ≈: the same amount, converted by molar mass.

How the values were obtained:
[1] = set-up: method as in https://www.caymanchem.com/pdfs/15941.pdf; conditions: ref https://www.caymanchem.com/pdfs/15941.pdf; cited from earlier work
[2] = system: AMPK and ACC phosphorylation; test: Western blot of AMPK and ACC phosphorylation in liver and subcutaneous adipose tissue; type: in vivo, mouse
Description: Protein was extracted from the adipose tissue by homogenization in PBS supplemented with 1 mM EDTA, 20 mM NaF, 2 mM Na3VO4, and protease inhibitor cocktail. 5× RIPA buffer was added to the homogenate for a final concentration of 10 mM Tris-HCl, 2 mM EDTA, 0.3% NP40, 0.3% deoxycholate, 0.1% SDS, and 140 mM NaCl, pH 7.4. The sample was centrifuged at 10,000 g for 5 min. In total, 20–50 μg/lane of supernatant protein was separated by SDS-PAGE (NP0335BOX, Thermo Fisher) and transferred to nitrocellulose membrane. The blots were then incubated overnight at 4°C with primary antibodies (1:1,000) in a 1% BSA TBST-blocking solution. Primary antibodies are listed in supplemental Table S3. Primary antibodies were detected using secondary antibodies labeled with infrared dyes emitting at 700 nm or 800 nm (1:5,000, Li-Cor Bioscience 925-68073 and 926-32213, respectively) The Odyssey Infrared Imager was used to visualized western blots with Li-Cor IRdye secondary antibodies.

INS-1 cells = test: qPCR gene expression in INS-1 cells; type: cell-based, rat; conditions: for genes related to insulin secretion and β-cell differentiation transcription factors: absence of palmitate
HFD-fed mice = test: qPCR gene expression in pancreas, BAT and scWAT of HFD mice; type: in vivo, mouse
Description: Total RNA was extracted with the RNeasy Mini kit (Qiagen #74106) for the pancreas or Trizol (Invitrogen #15596018) for the liver and adipose tissue. cDNA was synthesized with iScript cDNA Synthesis Kit (Bio-Rad #170-8891). Quantitative real-time PCR (qPCR) was performed with the Powerup SYBR Green PCR master mix (Applied Biosystems # A25742) on Quantistudio 6 Flex Real-Time PCR System (Applied Biosystems #4485694). Primer sequences for qPCR are listed in supplemental Table S2.
(§1) Six-week-old wild-type male mice were fed HFD for 4 weeks or 7 months In total, 5 mg/Kg of PBS, Adiporon, AdipoRonPEG5, AdipoRonPEG6HTL were injected twice a day for 5 days. After 5 days of treatment, systemic test is performed, and serum (Before and after treatment), subcutaneous, epididymal, liver, heart samples were harvested for qPCR and sphingolipid analysis.

HFD-fed wild-type mice = test: Food intake, body weight, ITT and OGTT in mice on HFD for 7 months; type: in vivo, mouse; conditions: HFD 7 months, 5 mg/kg twice a day for 5 days
Description: (§2) For oral glucose tolerance test (OGTT), mice were fasted for 4–6 h and subjected to an oral gavage of dextrose (2 mg/g body weight). Tail blood was collected at 0, 15, 30, 60, and 120 min and prepared for serum and assayed for glucose and insulin. For insulin tolerance test (ITT), insulin (0.75 U/kg Humulin R; Eli Lilly, Indianapolis, IN) was administered under fed condition. Serum glucose level was measured at 0, 15, 30, 60, and 90 min time point. Triglyceride tolerance test (TGTT) was initiated by oral gavage of 20% Intralipid (10 μl/g BDW, l141-100 ml, Sigma), and serum was collected at 0, 1, 1.5, 3, and 6 h for triglyceride assay. Glucose, insulin, and triacylglyceride levels were measured using an oxidase-peroxidase assay (Sigma P7119), insulin ELISA (Crystal Chem, Elk Grove village, IL, #15596018), and Infinity Triglycerides Reagent (Thermo Fisher Scientific TR22421).
as §1

wild-type mice = test: Cold exposure (4°C): body temperature, scWAT histology, qPCR; type: in vivo, mouse
Description: In total, 5 mg/Kg of PBS and AdipoRonPEG5 were injected twice a day for 5 days at room temperature followed by housing in the cold chamber (4°C) for 7 days. Body temperature was measured at 0, 1, 2, 3, 4, and 5 h time point at the first day of cold exposure. In total, 5 mg/Kg of PBS and AdipoRonPEG5 were injected once a day for 7 days after cold exposure followed by harvesting tissues for qPCR analysis.

STZ-treated Adn−/− mice = test: OGTT and triglyceride tolerance test in STZ-treated adiponectin knockout mice; type: in vivo, mouse
Description: as §2
Streptozotocin (STZ; Sigma S1030) was dissolved by 0.05 M citrate buffer (final; 20 mg/ml). Following 6 h fasting, mice received a single intraperitoneal injection of streptozotocin (200 mg/kg) to induce insulinopenic conditions.

Row | SMILES | solubility in neutral phosphate buffer containing >30% DMSO [1] [mg/mL] | p-AMPK levels in the liver, AdipoRon versus AdipoRonPEG5 ([2]; HFD-induced obese mice) | genes related to insulin secretion and β-cell differentiation transcription factors (INS-1 cells; 20 μM) | Cpt-1a expression (HFD-fed mice; BAT) | Prdm16 expression (HFD-fed mice; BAT) | fibrosis-related genes (Col1a1, Col3a1, Fn1) and Tgfb1 (HFD-fed mice; subcutaneous adipose tissue) | genes maintaining the functional state of pancreatic β-cells (HFD-fed mice; whole pancreas lysate) | blood glucose levels in ITT (HFD-fed wild-type mice) | blood glucose levels in OGTT (HFD-fed wild-type mice) | blood insulin levels in OGTT (HFD-fed wild-type mice) | food intake or body weight (HFD-fed wild-type mice) | subcutaneous adipose tissue histology after cold exposure (wild-type mice; 5 mg/kg, 4°C) | body temperature after acute cold exposure (wild-type mice; 5 mg/kg, 5 days treatment, 4°C) | T-cadherin (CDH13) expression (wild-type mice; scWAT and BAT after cold exposure, qPCR) | ACC phosphorylation in the subcutaneous adipose tissue ([2]; single treatment) | AMPK pathway in the liver ([2]; single treatment) | expression of Ins1, Nkx6-1 and Kcnj11 (INS-1 cells; 20 μM, presence of palmitate) | expression of Hif-1α (INS-1 cells; PA-stressed INS-1 cells) | blood TG levels in triglyceride tolerance test (STZ-treated Adn−/− mice) | glucose levels in OGTT (STZ-treated Adn−/− mice)
1 | O=C(COc1ccc(C(=O)c2ccccc2)cc1)NC1CCN(Cc2ccccc2)CC1 [AdipoRon] | 0.25 (≈ 583 µM) | higher | suppress |  |  |  |  |  |  |  |  |  |  |  |  |  |  |  |  | 
2 | O=C(COc1ccc(C(=O)c2ccccc2)cc1)NC1CCN(Cc2ccc(OCCOCCOCCOCCOCCO)cc2)CC1 [AdipoRonPEG5] |  |  | suppress | increased expression | significant upregulation | lowered | did not detect a significant upregulation | significant reduction | not altered | reduction of blood insulin levels | no significant impact | resembling beige adipocytes | significantly higher body temperature | upregulated expression | enhanced | activated | significantly increased | elevates | not altered | improved the glucose levels
